Measured values taken from patent US20030044400A1, “Composition and method for treating cells” (priority 2001, published 2003).

Assays:
[1] = Antigenic response after Fetuin injection; type: in vivo; details: mice, rat and rabbits to bovine
From the text: However, the species are mice, rat and rabbits to bovine, not human to bovine. The amino acid sequence of Fetuin homologue between species is about 65%. Because the mechanism of Fetuin exerting the drug effect is by binding to the growth factors, this is expected to have less immune response than other protein nature drugs.

[2] = Hematological and Pathological Assessment of Fetuin in Balb/C Mice; type: in vivo
Description: The Balb/C mice weighing 20-30 g at six to eight weeks of age were divided in six animals per group, 3 female and 3 male, in this study. Fetuin is administered IV or IP at dose of 5 mg, 0.5 mg, 0.05 mg and 0.005 mg per 20 gm mouse for 7 days. Because the nutritional supplement has potential beneficial effects on the immune response, potential toxicity is determined by clinical hematological and classical pathological parameters.
Pre-study assessment of highest tolerated dose administration by IV or IP injection. The end-point is the highest non-lethal dose administered by each route. Animals are screened daily for signs of lethality and the total time of observation is seven days.
Clinical and histological assessment of highest tolerated and lessor doses of Fetuin. Seven days prior to the beginning of phase II each animal is bled to determine its background values for hematological and clinical chemistry parameters. The highest tolerated dose and the next lowest, as well as the vehicle are injected in a single injection by the best-tolerated route. After 24 hours the animals are sacrificed. Gross and microscopic pathologic examination are performed on the organs. Hematological, clinical chemistries and clinical pathology tests are performed: (1) Blood Collection and Analysis: Blood samples are collected from each mouse, one at the start of the experiment prior to receiving their injection of Fetuin and the second collected at the time of euthanasia. The samples are collected via retro-orbital sinus bleed, or tail bleed, under anesthesia. (2) Hematology: Approximately 125 ul of whole blood is collected in an EDTA tube at the specified time. The following hematological parameters are determined: White blood cell count (WBC), Red blood cell count (RBC), Hemoglobin (HGB), Hematocrit (HCT), Mean Corpuscular Volume (MCV), Mean Corpuscular Hemoglobin (MCH), Mean Corpuscular Hemoglobin […] (MCHC), Platelet count (PLT), WBC differential count. Whole blood samples for hematology are disposed of one week after analysis. (3) Clinical Chemistry: Approximately 125 ul of whole blood is collected in a tube containing no additives for serum at the specified times. Tests determine the following clinical chemistry parameters: Alanine aminotransferase (ALT) and Aspartate aminotransferase (AST). (4) Collection of Tissue: The following tissues are collected into 10% neutral buffered formalin (NBF): kidney, liver, lung, thymus, reproductive organ, heart, spleen and lymph nodes. Any abnormalities or gross pathology found at necroscopy are recorded for each animal. (5) Histopathology: Histology is done on the tissue samples submitted for each animal. The tissues will be paraffin-embedded, sectioned and stained with hematoxylin and eosin (H&E). A pathology reads the slides for apparent abnormalities.
Clinical and histological assessment of highest tolerated dose of Fetuin administered daily over 14 days. The highest tolerated dose as determined in Phase II and the vehicle is injected daily for fourteen consecutive days by the best-tolerated route. After 24 hours, one-half of the animals are sacrificed. The remainder are sacrificed after 14 days. Gross microscopic pathologic examination are performed on the organs recovered from all animals. (1) Blood collection and analysis: Blood sample is collected from each mouse, one at the start of the experiment prior to receiving their injection of Fetuin and the second collected at the time of euthanasia. The samples are collected via retro-orbital sinus bleed or tail bleed under anesthesia. (2) Hematology: Approximately 125 ul of whole blood is collected in an EDTA tube at the specified time. The following hematology parameters is determined: White blood cell count (WBC), Red blood cell count (RBC), Hemoglobin (HGB), Hematocrit (HCT), Mean Corpuscular Volume (MCV), Mean Corpuscular Hemoglobin (MCH), Mean Corpuscular Hemoglobin […] (MCHC), Platelet count (PLC), WBC differential count. […]

[3] = system: WI 38 (normal lung fibroblast); assay: Fetuin-induced apoptosis, Hoechst staining confirmed by MTS assay; type: cell-based, Human
Description: (§1) The purified fetuin was tested on various cancer cell lines. […] The DNA condensation and breakage of nuclei which are the characteristics for apoptosis were observed by staining the cell with Hoechst dye at 0.1 ug/ml.
(§2) Various concentrations of Zn-charged fetuin prepared as described were incubated with cell lines for 6 hr. Percent of cell under apoptosis was determined by Hoechst staining and confirmed by MTS assay. The concentration of Zn-charged fetuin for the induction of 50% of cells under apoptosis (LD50) was determined. Each data represents the average of three assays.

[4] = system: MCF-7 cells; assay: as above; type: cell-based, Human
Description: as §1, §2

[5] = system: CCD 39 Lu (normal lung fibroblast); assay: as above; type: cell-based, Human
Description: as §1, §2

[6] = system: Calu-1 cells; assay: as above; type: cell-based, Human
Description: as §1, §2

[7] = system: Colo 205 cells; assay: as above; type: cell-based, Human
Description: as §1, §2

[8] = system: PC-3 cells; assay: as above; type: cell-based, Human
Description: as §1, §2

[9] = system: CCD 18 Co (normal colon fibroblast); assay: as above; type: cell-based, Human
Description: as §1, §2

[10] = system: HL-60 cells; assay: as above; type: cell-based, Human
Description: as §1, §2

[11] = system: Hep G2 cells; assay: as above; type: cell-based, Human
Description: as §1, §2

[12] = Zn-charged fetuin, 6 hr, average of three assays
[13] = purified fetuin, Hoechst dye 0.1 ug/ml

In the case of “Fetuin: Fetal bovine fetuin purified from fetal bovine serum by modified Spiro method; 60 Kd glycoprotein, homologue of alpha 2-HS glycoprotein”, the “hypersensitivity reaction after Fetuin injection” value [1] is reported as “no hypersensitivity reaction was shown”, the Blood glucose levels ([2]; Balb/C mice, 0.005 mg per animal) is reported as 13 mg/dL and the Blood glucose levels ([2]; Balb/C mice, 0.05 mg Fetuin) is reported as 27 mg/dL. For the same substance, the Blood glucose levels ([2]; Balb/C mice, 0.5 mg Fetuin) was 25 mg/dL, the Blood glucose levels ([2]; Balb/C mice, 5 mg Fetuin per animal) was 41.6 mg/dL and the “cholesterol levels elevated compared to the lower doses” value ([2]; Balb/C mice, 5 mg per mouse, P<0.05) was 14%. For the same substance, the “survival and clinical signs” value ([2]; Balb/C mice, 5, 0.5, 0.05 and 0.005 mg Fetuin via IP route, 7 days) was “survived for 7 days without any signs of distress”, the “White Blood Cell (WBC) levels” value ([2]; Balb/C mice, 24 hrs after injection of various doses, p=0.126) was “within the normal limits” and the “AST (Aspartate Aminotransferase) level” value ([2]; Balb/C mice, P=0.306) was “within the normal limits”. For the same substance, the “ALT (Alanine Aminotransferase) level” value ([2]; Balb/C mice, P=0.444) was “within the normal limits”, the “microscopic structure of tissues” value ([2]; Balb/C mice, all dosage groups) was “normal in architecture” and the body weight change ([2]; Balb/C mice, control vs Fetuin treated group) was “no significant body weight change”. The “Blood Urinary Nitrogen (BUN) levels” value ([2]; Balb/C mice, highest and lowest dose groups, unrelated to dose) was “elevated”, the overall toxicity ([2]; Balb/c mouse) was “very low toxicity” and the “red blood cell count, white blood cell count and platelet count” value ([2]; healthy animals, 5-fold increased dose) was “did not affect”. The “safety by hematological, clinical chemistry and histopathological analysis” value ([2]; healthy mice, 2.5-5 fold higher dose than effective in cancer-bearing mice) was “no obvious adverse effect was observed”, the “LD50 of Fetuin-induced Apoptosis” value ([3]; WI 38, Zn-charged fetuin, 6 hr, average of three assays) was greater than 100 µM and the induction of apoptosis ([3]; WI-38, purified fetuin, Hoechst dye 0.1 ug/ml) was “did not induce apoptosis”. The “LD50 of Fetuin-induced Apoptosis” value [4, 12] was 8 µM, the induction of apoptosis [4, 13] was “strongly induced apoptosis” and the “LD50 of Fetuin-induced Apoptosis” value ([5]; CCD 39 Lu, Zn-charged fetuin, 6 hr, average of three assays) was greater than 100 µM. For the same substance, the induction of apoptosis ([5]; CCD39Lu, purified fetuin, Hoechst dye 0.1 ug/ml) was “did not induce apoptosis”, the “LD50 of Fetuin-induced Apoptosis” value [6, 12] was 4 µM and the induction of apoptosis [6, 13] was “strongly induced apoptosis”. The “LD50 of Fetuin-induced Apoptosis” value [7, 12] was 5 µM, the induction of apoptosis [7, 13] was “strongly induced apoptosis” and the “LD50 of Fetuin-induced Apoptosis” value [8, 12] was 1 µM. The induction of apoptosis [8, 13] was “strongly induced apoptosis”, the “LD50 of Fetuin-induced Apoptosis” value ([9]; CCD 18 Co, Zn-charged fetuin, 6 hr, average of three assays) was greater than 100 µM and the induction of apoptosis ([9]; CCD18Co, purified fetuin, Hoechst dye 0.1 ug/ml) was “did not induce apoptosis”. For the same substance, the “LD50 of Fetuin-induced Apoptosis” value ([10]; HL-60, Zn-charged fetuin, 6 hr, average of three assays) was 5 µM, the induction of apoptosis ([10]; HL-60, purified fetuin, Hoechst dye 0.1 ug/ml) was “strongly induced apoptosis” and the “apoptosis of HL-60 cells” value ([10]; at 1 uM) was “induce apoptosis”. The “LD50 of Fetuin-induced Apoptosis” value ([11]; Hep G2, Zn-charged fetuin, 6 hr, average of three assays) was 20 µM and the induction of apoptosis ([11]; HepG2, purified fetuin, Hoechst dye 0.1 ug/ml) was “strongly induced apoptosis”.
